From PubChem BioAssay (NCI)
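Grown in 96-well plates, cells were treated for 48 hours with each compound at five concentrations. Insufficient inhibition: endpoint recorded as highest concentration tested. Abbreviation: GI50, concentration required for 50% inhibition of growth. TGI marks complete inhibition of growth.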

Key:
Test in all cases: inhibition of tumour cell growth, NCI panel, 48 h
HCC-2998 colon = test system: HCC-2998 colon
HCT-116 colon = test system: HCT-116 colon
MDA-MB-435 = test system: MDA-MB-435
COLO 205 colon = test system: COLO 205 colon
IGROV1 ovarian = test system: IGROV1 ovarian
786-0 renal = test system: 786-0 renal
PC-3 prostate = test system: PC-3 prostate
SR leukemia = test system: SR leukemia

Row | Structure (SMILES) | TGI (HCC-2998 colon) | TGI (HCT-116 colon) | TGI (MDA-MB-435) | TGI (COLO 205 colon) | TGI (IGROV1 ovarian) | TGI (786-0 renal) | TGI (PC-3 prostate) | GI50 (SR leukemia) | TGI (SR leukemia) | GI50 (HCC-2998 colon) | GI50 (HCT-116 colon) | GI50 (MDA-MB-435) | GI50 (COLO 205 colon) | GI50 (IGROV1 ovarian) | GI50 (786-0 renal) | GI50 (PC-3 prostate)
1 | OC1CSCCSCCCSCCSC1 | > 100 µM | > 100 µM | > 100 µM | > 100 µM | > 100 µM | > 100 µM | > 100 µM |  |  |  |  |  |  |  |  | 
2 | NCC(Cc1ccccc1)P(=O)(O)O (configuration not stated) | > 100 µM | > 100 µM | > 100 µM | > 100 µM | > 100 µM | > 100 µM | > 100 µM |  |  |  |  |  |  |  |  | 
3 | O=C1C2C(C(=O)N1CC[Se][Se]CCN1C(=O)C3C(C1=O)[C@H]1C=C[C@@H]3C1)[C@H]1C=C[C@@H]2C1 (some centres not stated) | 8.92 µM | 2.87 µM | 0.744 µM | 4.98 µM | 0.556 µM | 1.29 µM | 4.39 µM | 1.1 µM | > 26.6 µM | 2.62 µM | 0.409 µM | 0.267 µM | 2.12 µM | 0.22 µM | 0.369 µM | 0.844 µM
4 | CCN(CC)Cc1cc(Nc2cc(C(F)(F)F)c(C#N)c3nc4ccccc4n23)ccc1O | 15.2 µM | 4.45 µM | 13.5 µM | 3.08 µM |  | 9.98 µM | 7.87 µM | 3.72 µM | > 100 µM | 2.85 µM | 1.6 µM | 2.29 µM | 1.41 µM |  | 2.57 µM | 2.32 µM
5 | CCOC(=O)C1=C(C)N(Cc2ccc(Cl)cc2Cl)[C@]2(C#N)C(O)=C(Cl)C(Cl)=C(O)[C@]12C#N |  | > 100 µM | > 100 µM | > 100 µM | > 100 µM | > 100 µM |  | 16 µM | 38.9 µM |  | 34.7 µM | > 100 µM | > 100 µM | > 100 µM | > 100 µM | 
6 | CN1CCOCCOCCOc2ccccc2NC(=O)c2nc(cnc2N)-c2ccc(cc2)S1(=O)=O | > 100 µM |  |  |  | > 100 µM | 23.3 µM | > 100 µM |  |  | > 100 µM |  |  |  | 0.0719 µM | 0.0398 µM | > 100 µM
7 | COc1cc2c3c(n(CCCN4CCSCC4)c(=O)c2cc1OC)-c1cc2c(cc1C3=O)OCO2 | > 100 µM | > 100 µM | > 100 µM | > 100 µM | 86.2 µM | 75.5 µM | > 100 µM |  |  | 35.1 µM | 73.1 µM | > 100 µM | > 100 µM | 28.8 µM | 25.2 µM | 42.8 µM
8 | O=C1c2ccccc2-c2c1c1ccc([N+](=O)[O-])cc1c(=O)n2CCCCl |  | > 100 µM | > 100 µM |  | > 100 µM | > 100 µM | > 100 µM |  |  |  | 3.62 µM | 31.7 µM |  | > 100 µM | > 100 µM | 15.2 µM
9 | C=C(C)[C@@H]1CC[C@]2(C(=O)n3ccnc3)CC[C@]3(C)[C@H](CC[C@@H]4[C@@]5(C)CCCNC(C)(C)[C@@H]5CC[C@]43C)[C@@H]12 | 3.2 µM | 2.25 µM |  | 3.25 µM | 3.27 µM | 2.96 µM | 2.67 µM |  |  | 1.64 µM | 1.03 µM |  | 1.52 µM | 1.58 µM | 1.45 µM | 1.29 µM
10 | Cc1cn2c(/C=C3/C(=O)Nc4ccc(C(=O)O)cc43)c(C)nc2s1 | > 100 µM |  | > 100 µM | > 100 µM | > 100 µM | > 100 µM | > 100 µM |  |  | > 100 µM |  | > 100 µM | > 100 µM | > 100 µM | > 100 µM | > 100 µM
